Earlier results in patent US9950023B1, “Composition for the treatment of acne” (Parham Tabibian, MD, Inc., priority 2014, dated 2018).

Key:
[1] = test system: biofilm-associated P. acnes; details: in vitro; concentrations as given in the label
[2] = test system: interleukin-8 (IL-8); details: dose-dependent manner
[3] = test system: P. acnes biofilm; details: clinical tests, trans Resveratrol extracts

SMILES: Oc1cc(Cl)ccc1Oc1ccc(Cl)cc1Cl [0.1% triclosan, triclosan]
- reducing biofilm mass [1]: effective

SMILES: NC(=O)c1cccnc1 [Nicotinamide]
- interleukin-8 (IL-8) production [2]: decreasing interleukin-8 (IL-8) production in a dose-dependent manner

SMILES: Oc1ccc(C=Cc2cc(O)cc(O)c2)cc1 [Resveratrol]
- inhibition of P. acnes biofilm formation [3]: 99.2%
